Structures can show the parent of a compound that is named as a salt.
Legend:
Wistar-strain male rats = assay: Hypoglycemic effect (blood glucose level in fasted, glucose-loaded rats); type: in vivo; details: 100 mg/kg oral, 2 hours later; for Blood Glucose Level: fasted rats with s.c. 20% glucose 0.5 ml/100 g, control 139 ± 3; for inhibition in vivo at 100 mg/kg: Rattus norvegicus, decrease vs control (139 ± 3 mg/dl)
Experimental: Groups of 7 Wistar-strain male rats (weighing about 200 g) which were fasted for 20 hours were used for measurement of the hypoglycemic effect according to the modified method by Dulin et al. [Dulin, W. L. et al., Proc. Soc. Expl. Med., 107, 245 (1961)]. That is, 0.5 ml/100 g of 20% aqueous solution of glucose was subcutaneously administered to the backs of rats to prevent a decrease in blood glucose level because of the fasting. […] The obtained blood sample was allowed to stand for 30 minutes to complete the coagulation and was centrifuged to obtain the serum. Blood sugar level was measured according to the mutalotase GOD method [Trinder, Ann. Clin. Biochem., 6, 24 (1979)].

[1] = Acute toxicity test (oral, lethal dose by deaths over 7 days); details: mouse, in vivo, suspended in 0.5% aqueous C.M.C., fasted 20 hours, deaths for 7 days
Experimental: The test compounds of the present invention suspended in 0.5% aqueous solution of carboxymethylcellulose (C.M.C.) were orally administered to groups of 4 to 6 ddY-strain male mice (weighing about 19 g) which had fasten for 20 hours. The lethal dose was determined by the number of deaths for 7 days thereafter.

SMILES	Blood Glucose Level (Wistar-strain male rats) [mg/dL]	inhibition in vivo at 100 mg/kg (Wistar-strain male rats) [%]	LD50 at 168 h [1] [mg/kg]
CCCCNC(=O)NS(=O)(=O)c1ccc(C)cc1 [Tolubutamide, reference compound]	50 ± 1	64	
CNC(=O)NC(=O)C(=O)O [compound 1, 5-methyloxaluric acid ammonium salt]	104 ± 7	25.2	
CCNC(=O)NC(=O)C(=O)O [compound 2, 5-ethyloxaluric acid ammonium salt]	102 ± 4	26.6	3000 to 4000
CCCCNC(=O)NC(=O)C(=O)O [compound 3, 5-butyloxaluric acid]	103 ± 5	26	
CCOC(=O)C(=O)NC(=O)NC [compound 12, 5-methyloxaluric acid ethyl ester]	81 ± 5	41.7	
CCCCNC(=O)NC(=O)C(=O)OC [compound 13, 5-butyloxaluric acid methyl ester]	88 ± 3	36.7	1000 to 2000
CCOC(=O)C(=O)NC(=O)NCC(C)C [compound 14, 5-iso-butyloxaluric acid ethyl ester]	93 ± 2	33.1	
CCCCOC(=O)C(=O)NC(=O)NC [compound 20, 5-methyloxaluric acid butyl ester]	101 ± 6	27.3	> 4000
CNC(=O)NC(=O)C(=O)OCC(C)C [compound 21, 5-methyloxaluric acid iso-butyl ester]	115 ± 4	17.3	
CCCCCCCCOC(=O)C(=O)NC(=O)NC [compound 22, 5-methyloxaluric acid octyl ester]	122 ± 2	12.2	

Reference: patent US4708954A, “Hypogylcemic oxaluric acid derivatives” (Nippon Zoki Pharmaceutical Co., Ltd., priority 1985, dated 1987)
